For data set [1] the following is noted: cited from earlier work.
For data set [2] the following is noted: cited from earlier work. The source holds these as a separate data set.
A further data set relates to treated patients. The settings on record: cited from earlier work; for Psychiatric side-effects: anti-epileptics.
For data set [3] the following is noted: antiparkinsonian drugs; cited from earlier work.
For data set [4] the following is noted: parent drug; cited from earlier work.
For data set [5] the following is noted: cited from earlier work. This is another data set of the same source.
For data set [6] the following is noted: cited from earlier work. The source holds these as a separate data set.
In a further data set the test system is subject. The data set can be described thus: Example 4: Flunitrazepam with pseudoephedrine and Mucinex, subject report.
Another data set concerns patient. Nature of the data set: Example 1: patient with tooth pain, Soma with neuromodulators. The settings on record: Soma with 60 mg Pseudoephedine, 600 mg Guaifenesin 10 min later. It counts as in vivo, human. As for the experimental part: A patient had experienced tooth pain. The patient was given the following treatment: at 11:00 a.m.-co-administration of Soma (Carisoprodol) with 60 mg of Pseudoephedine. At 11:10 a.m.-600 mg of Guaifenesin. […] At no time during the treatment did the patient feel somnolent or have any desire to sleep.

The test system of the next data set is healthy volunteer. Nature of the data set: Example 2: volunteer with lower back pain, Soma with neuromodulators. It is filed as in vivo, human. As for the experimental part:
A healthy volunteer was prescribed 250 mg two times a day Soma by their family doctor for reduction of lower back pain. […] The volunteer agreed to take Soma during the day together with the neuromodulation treatment. They took Soma in the morning and afternoon together with Pseudoephedrine followed 15 minutes later by Guaifenisin.

Where [7] appears, read: oral ingestion 75-100 mg/kg in humans.
Setting [8] is: stated in words (injection / IV).
[9] abbreviates: Soma with Pseudoephedrine, Guaifenisin 15 minutes later, two-day regimen.

Consider 48 compounds from patent US9579299B2, “CNS pharmaceutical compositions and methods of use” (TARGIA PHARMACEUTICALS, priority 2008, dated 2017).

The structures appear in SMILES notation. Read-outs that look alike come from different tables or passages of the source.

For `COc1ccc2c(c1)N(C[C@H](C)CN(C)C)c1ccccc1S2` [Methotrimeprazine], in data set [1] (in vivo), the Half-life was 20 h and the Tmax (usually the time at which the peak concentration occurs) is 1 to 4 h.
As to `CCC1(c2ccccc2)C(=O)NC(=O)NC1=O` [Phenobarbital, 5-ethyl-5-phenyl barbituric acid], the time to peak (Tmax) in data set [2] (CNS active agent) is listed as 2 h.
As for `CN1C(=O)CN=C(c2ccccc2)c2cc(Cl)ccc21` [Diazepam], the bioactivity in data set [2] (CNS active agent) is 97%.
Consider `Cc1ccsc1C(=CCCN1CCC[C@@H](C(=O)O)C1)c1sccc1C` [Tiagabine], for which, in the data set with treated patients, the Psychiatric side-effects result was “Psychosis (0.8% of treated patients), depressive symptoms” and the “Psychosis, % of treated patients” value is 0.8%.
Turning to `CCC(=O)C(CC(C)N(C)C)(c1ccccc1)c1ccccc1` (stereo not drawn) [Methadone], the Tmax in data set [1] (in vivo) was 1 to 7.5 h.
Regarding `CC[C@@H](C(N)=O)N1CCCC1=O` [Levetiracetam], the Psychiatric side-effects entry with treated patients was “Irritability, sedation and psychosis”.
On to `Fc1ccc(C(c2ccc(F)cc2)N2CCN(C/C=C/c3ccccc3)CC2)cc1` [Flunarizine], for which, in data set [1] (in vivo), the Half-life is 456 h and the Tmax is recorded as 1 h.
For the compound `C=CC(N)CCC(=O)O` (stereo not drawn) [Vigabatrin (GVG), Gamma vinyl GABA], in data set [2] (CNS active agent), the time to peak (Tmax) was 0.4 to 1 h.
For the compound `CCCN[C@H]1CCc2nc(N)sc2C1` [Pramipexole], the Psychiatric side-effects result in data set [3] is given as “Sedation, psychomotor agitation, anxiety,”. For the same compound, the time to peak (Tmax) in data set [1] (in vivo) was 1 h.
For `CN[C@@H](C)[C@@H](O)c1ccccc1` [Pseudoephedrine], in data set [2] (selected neuromodulators), the Tmax is 0.5 to 1 h.
With `CCC1(c2ccccc2)C(=O)NCNC1=O` [Primidone], the Psychiatric side-effects entry in the data set on treated patients is “Sedation, mood lability, psychotic symptoms, delirium”.
On to `CN1C(=O)CN=C(C2=CCCCC2)c2cc(Cl)ccc21` [Tetrazepam], for which the “Elimination Half-Life” value in data set [4] was 3 to 26 h.
On to `Cc1cc(C)cc(OCC2CNC(=O)O2)c1` (stereo not drawn) [Metaxalone], for which the duration result in [5] (in vivo) is listed as “four to six hours”. Further, in [1] (in vivo), the Half-life was 5 to 12 h and the Tmax was 3 h.
With `C=CCN1C[C@H](C(=O)N(CCCN(C)C)C(=O)NCC)C[C@@H]2c3cccc4[nH]cc(c34)C[C@H]21` [Cabergoline], the Psychiatric side-effects result in data set [3] is given as “Sedation, psychomotor agitation, anxiety,”. Besides, in data set [1] (in vivo), the Half-life is 63 to 69 h and the Tmax was 0.5 to 4 h.
As for `COc1ccc(OC)c(C(O)CNC(=O)CN)c1` (stereo not drawn) [Mitodrin], the Tmax in data set [2] (selected neuromodulators) is 0.25 to 0.5 h.
Take `NCC1(CC(=O)O)CCCCC1` [Gabapentin, 1-(aminomethyl)-cyclohexylacetic acid]: the Psychiatric side-effects result with treated patients was “Sedation, agitation, fatigue”.
Take `CNC[C@H](O)c1cccc(O)c1` [Phenylephrine]: the “duration of anti-hypotensive effect” value in [5] (after a single intravascular injection) was “approximately 20 minutes”. The Tmax in data set [2] (selected neuromodulators) was 0.167 to 0.25 h.
Take `Nc1nnc(-c2cccc(Cl)c2Cl)c(N)n1` [Lamotrigine]: in the data set on treated patients, the Psychiatric side-effects result is listed as “Sedation, depression, agitation, psychosis” and the “Psychosis, % of treated patients” value was “(0.3% of treated patients)”.
Consider `Fc1ccccc1C1=NCC(=S)N(CC(F)(F)F)c2ccc(Cl)cc21` [Quazepam], for which the “Elimination Half-Life” value in data set [4] is 25 to 100 h.
As to `O=C1CN=C(c2ccccc2)c2cc([N+](=O)[O-])ccc2N1` [Nitrazepam], the “Elimination Half-Life” value in data set [4] was 15 to 38 h.
Turning to `NCC(CC(=O)O)c1ccc(Cl)cc1` (stereo not drawn) [Baclofen], in data set [1] (in vivo), the Half-life is 1.5 to 4 h and the Tmax was 0.5 to 1 h.
Consider `N#CCCN1C(=O)C(O)N=C(c2ccccc2F)c2cc(Cl)ccc21` (stereo not drawn) [Cinolazepam], for which the “Elimination Half-Life” value in data set [4] was 9 h.
`CN1CCN=C(c2ccccc2)c2cc(Cl)ccc21` [Medazepam]: the “Elimination Half-Life” value in data set [4] is 36 to 200 h.
As for `CCCN1C[C@H](CSC)C[C@@H]2c3cccc4[nH]cc(c34)C[C@H]21` [pergolide], the Psychiatric side-effects entry in [3] is “Sedation, psychomotor agitation, anxiety,”.
Take `O=C(O)CCCO` [GHB, g-Hydroxybutyric acid]: the time of peak concentration (Tmax) in data set [2] (CNS active agent) is 0.5 to 2 h; in [6] (25 mg/kg), “approximately 30 minutes”; in data set [6] (50 mg/kg), “around 45 minutes”. In data set [6] (setting [7]), the peak blood levels is 90 to 100 µg/mL. Further, in data set [6] (setting [7]), the “time of peak blood levels after ingestion” value is 1 to 2 h. The onset of action in [6] (orally) was not above 15 min.
Regarding `COCCc1ccc(OCC(O)CNC(C)C)cc1` (stereo not drawn) [Metoprolol], in [1] (in vivo), the Half-life is 3 to 7 h and the Tmax entry is reported as “(fast) up to 1 h”.
`CN1CCN(C2=Nc3cc(Cl)ccc3Nc3ccccc32)CC1` [Clozapine]: in data set [2] (CNS active agent), the Tmax was 2.5 h.
As to `Clc1ccc2c(c1)C(c1ccccc1)=NCc1nncn1-2` [Estazolam], in [4], the “Elimination Half-Life” value is 10 to 24 h.
As for `O=C1CN=C(c2ccccn2)c2cc(Br)ccc2N1` [Bromazepam], in [4], the “Elimination Half-Life” value was 10 to 20 h.
Take `CCOC(=O)C1(c2ccccc2)CCN(C)CC1` [Meperidine(Pethidine), Meperidine]: the Half-life in [1] (in vivo) was 3 to 5 h. For the same compound, the time to peak (Tmax) entry is on record as “oral, up to 1.5 h” in [1] (oral) and “IV, several min” in data set [1] (setting [8]).
For the compound `CN1CCN(/C=C2\N=C3CN=C(c4ccccc4Cl)c4cc([N+](=O)[O-])ccc4N3C2=O)CC1` [Loprazolam], the “Elimination Half-Life” value in data set [4] is 6 to 12 h.
For the compound `O=C1CN=C(c2ccccc2Cl)c2cc([N+](=O)[O-])ccc2N1` [Clonazepam], the “Elimination Half-Life” value in data set [4] is 18 to 50 h. Moreover, in [2] (CNS active agent), the Tmax was 4 h and the bioactivity was 90%.
Turning to `OC(CCN1CCCCC1)(c1ccccc1)C1CC2C=CC1C2` (stereo not drawn) [Biperiden], in data set [1] (in vivo), the Half-life was 18 to 24 h and the time of peak concentration (Tmax) was 1.5 h.
For the compound `CNC1=Nc2ccc(Cl)cc2C(c2ccccc2)=[N+]([O-])C1` [Chlordiazepoxide], in [4], the “Elimination Half-Life” value is 5 to 30 h.
Regarding `CC(C)C[C@H]1C(=O)N2CCC[C@H]2[C@]2(O)O[C@](NC(=O)[C@@H]3C=C4c5cccc6[nH]c(Br)c(c56)C[C@H]4N(C)C3)(C(C)C)C(=O)N12` [Bromocriptine], the Psychiatric side-effects entry in data set [3] is listed as “Sedation, psychomotor agitation, anxiety,”. Also, in data set [1] (in vivo), the Half-life is 7 h and the Tmax was 1 to 2 h.
For `COc1ccccc1OCC(O)COC(N)=O` (stereo not drawn) [Methocarbamol], the Half-life is 1 to 2 h in data set [1] (in vivo) and 1.14 to 1.24 h in data set [1] (in vivo, listed as Robaxin). Besides, the Tmax was 1 to 2 h in [1] (in vivo) and 0.5 to 1 h in [1] (in vivo, listed as Robaxin).
For `CN1C(=O)CC(=O)N(c2ccccc2)c2cc(Cl)ccc21` [Clobazam], the “Elimination Half-Life” value in data set [4] is 12 to 60 h.
With `CCN(CC)C(=O)N[C@H]1C=C2c3cccc4[nH]cc(c34)C[C@H]2N(C)C1` [Lisuride], in data set [1] (in vivo), the Half-life is given as 2 h and the Tmax was 1.1 to 1.3 h.
Regarding `Cc1cc2c(s1)Nc1ccccc1N=C2N1CCN(C)CC1` [Olanzapine], in data set [2] (CNS active agent), the Tmax is 5 to 8 h and the bioactivity was 40%.
Take `CN1CCc2cccc3c2[C@H]1Cc1ccc(O)c(O)c1-3` [Apomorphine]: the Psychiatric side-effects result in data set [3] was “Sedation, psychomotor agitation, anxiety,”. In data set [1] (setting [8]), the Tmax result is given as “(fast, but injection)”.
Regarding `CC1=CC(=O)N2CC(=O)N(C)c3ccc(Cl)cc3C2(c2ccccc2)O1` (stereo not drawn) [Ketazolam], the “Elimination Half-Life” value in data set [4] is 2 h.
In the case of `CCCN(CCC)CCc1cccc2c1CC(=O)N2` [Ropinirole], in data set [3], the Psychiatric side-effects entry is on record as “Sedation, psychomotor agitation, anxiety,”. In data set [1] (in vivo), the Half-life is given as 6 h and the Tmax was 1 to 2 h.
On to `Cc1ccccc1C(OCCN(C)C)c1ccccc1` (stereo not drawn) [Orphenadrine], for which, in data set [1] (in vivo), the Half-life is 13 to 20 h and the time to peak (Tmax) is reported as 2 h.
For `CN1C(=O)CN=C(c2ccccc2F)c2cc([N+](=O)[O-])ccc21` [Flunitrazepam], the subject-reported effects result in the data set on subject (Flunitrazepam 0.5 mg, 15 minutes later pseudoephedrine 60 mg and Mucinex 600 mg) was “a little “loopy””; in the data set on subject (Flunitrazepam 1.0 mg, at the same time pseudoephedrine 60 mg and Mucinex 600 mg), “started to feel tranquilized”.
In the case of `CCCC(CCC)C(=O)[O-].[Na+]` [Sodium valproate], in the data set with treated patients, the Psychiatric side-effects entry is reported as “Sedation, hallucinations, depressive symptoms, delirium”.
Consider `CN1C(=O)C(O)N=C(c2ccccc2Cl)c2cc(Cl)ccc21` (stereo not drawn) [Lormetazepam], for which the “Elimination Half-Life” value in [4] was 10 to 12 h.
For `CCCC(C)(COC(N)=O)COC(=O)NC(C)C` (stereo not drawn) [Carisoprodol], in the data set on patient, the “sedation or other side-effects reported by patient” value is listed as “without any sedation or other side-effects”. Moreover, the “pain reported by patient” value in the data set on patient (tooth pain) is “less pain than prior to the procedure”. Moreover, the sedative side-effect entry in the data set on healthy volunteer (Soma 250 mg two times a day alone) is listed as “suffered from the sedative side-effect of Soma”. In the data set on healthy volunteer (setting [9]), the back pain result is listed as “back pain was effectively reduced” and the sedation reported result is on record as “did not feel sedated”. In [1] (in vivo), the Half-life is given as 2.5 h and the time to peak (Tmax) was 1.5 to 2 h.
On to `CN1[C@@H]2CC[C@H]1C[C@@H](OC(c1ccccc1)c1ccccc1)C2` [Benzatropine], for which, in [3], the Psychiatric side-effects result was “Sedation, anxiety, psychosis, delirium,”. In data set [1] (in vivo), the Half-life was 36 h and the Tmax was 1 to 2 h.
